Measured values: ChEMBL document CHEMBL1201862, “PubChem BioAssay data set” (2004)
Activity calls are given as the source filed them.

How the values were obtained:
Type in all cases: functional
[1] = target: T1, Neuropeptides B/W receptor type 1 (Homo sapiens, UniProt P48145); assay: human NPBW1 receptor blockade, IC50 – cell-based, fluorescence, dose response, set 5, late-stage follow-up (AID 588566)
T1 sequence (P48145 whole entry): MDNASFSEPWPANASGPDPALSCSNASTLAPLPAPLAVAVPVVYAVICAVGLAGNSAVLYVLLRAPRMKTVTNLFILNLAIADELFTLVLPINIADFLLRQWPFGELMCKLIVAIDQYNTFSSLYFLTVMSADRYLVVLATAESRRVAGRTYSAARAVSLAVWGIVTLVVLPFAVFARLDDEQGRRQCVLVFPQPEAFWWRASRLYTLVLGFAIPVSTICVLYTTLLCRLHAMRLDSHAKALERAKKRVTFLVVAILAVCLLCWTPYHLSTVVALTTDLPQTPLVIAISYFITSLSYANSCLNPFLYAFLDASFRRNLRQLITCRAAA

[2] = target: Melanin-concentrating hormone receptor 1 (Homo sapiens, UniProt Q99705); assay: Late-stage fluorescence-based counterscreen for antagonists of the G-protein coupled receptor 7 (GPR7): cell-based dose response assay to identify antagonists of the melanin-concentrating hormone receptor 1 (MCHR1) Set 5.
[3] = target: Tyrosine-protein kinase JAK3 (Homo sapiens, UniProt P52333)
[4] = target: Cyclin-dependent kinase 8 (Homo sapiens, UniProt P49336); assay: Navigating the Kinome. Panel member name: CDK8
[5] = target: Platelet-derived growth factor receptor beta (Homo sapiens, UniProt P09619);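 note: value comes from a kinome panel, with PDGFRB tested as one panel member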
[6] = target: Proto-oncogene tyrosine-protein kinase receptor Ret (Homo sapiens, UniProt P07949);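 note: measured within a kinome-wide profiling panel, RET as the panel member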
[7] = target: cAMP-dependent protein kinase catalytic subunit PRKX (Homo sapiens, UniProt P51817)
[8] = target: BDNF/NT-3 growth factors receptor (Homo sapiens, UniProt Q16620);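 note: NTRK2 measured as one member of a broad kinome-wide kinase profiling panel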
[9] = target: Glycogen synthase kinase-3 alpha (Homo sapiens, UniProt P49840);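 note: GSK3A result taken from a broad kinome-wide kinase panel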
[10] = target: Rho-associated protein kinase 1 (Homo sapiens, UniProt Q13464);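 note: measured within a broad kinome-wide panel profiling many kinases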
[11] = target: Leukocyte tyrosine kinase receptor (Homo sapiens, UniProt P29376); assay: Navigating the Kinome. Panel member name: LTK
[12] = target: Mitogen-activated protein kinase 8 (Homo sapiens, UniProt P45983);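 note: value comes from one member of a kinome-wide kinase profiling panel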
[13] = target: Serine/threonine-protein kinase D3 (Homo sapiens, UniProt O94806);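 note: determined within a kinase panel screen, with PRKCN as the panel member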
[14] = target: cAMP-dependent protein kinase catalytic subunit alpha (Homo sapiens, UniProt P17612)
[15] = target: Tyrosine-protein kinase BTK (Homo sapiens, UniProt Q06187)
[16] = target: Ribosomal protein S6 kinase alpha-3 (Homo sapiens, UniProt P51812);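 note: measured within a kinome-wide profiling panel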
[17] = target: Tyrosine-protein kinase receptor TYRO3 (Homo sapiens, UniProt Q06418);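 note: TYRO3 value obtained as one member of a kinome-wide profiling panel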
Tyrosine-protein kinase receptor TYRO3, sequence (Q06418 whole entry): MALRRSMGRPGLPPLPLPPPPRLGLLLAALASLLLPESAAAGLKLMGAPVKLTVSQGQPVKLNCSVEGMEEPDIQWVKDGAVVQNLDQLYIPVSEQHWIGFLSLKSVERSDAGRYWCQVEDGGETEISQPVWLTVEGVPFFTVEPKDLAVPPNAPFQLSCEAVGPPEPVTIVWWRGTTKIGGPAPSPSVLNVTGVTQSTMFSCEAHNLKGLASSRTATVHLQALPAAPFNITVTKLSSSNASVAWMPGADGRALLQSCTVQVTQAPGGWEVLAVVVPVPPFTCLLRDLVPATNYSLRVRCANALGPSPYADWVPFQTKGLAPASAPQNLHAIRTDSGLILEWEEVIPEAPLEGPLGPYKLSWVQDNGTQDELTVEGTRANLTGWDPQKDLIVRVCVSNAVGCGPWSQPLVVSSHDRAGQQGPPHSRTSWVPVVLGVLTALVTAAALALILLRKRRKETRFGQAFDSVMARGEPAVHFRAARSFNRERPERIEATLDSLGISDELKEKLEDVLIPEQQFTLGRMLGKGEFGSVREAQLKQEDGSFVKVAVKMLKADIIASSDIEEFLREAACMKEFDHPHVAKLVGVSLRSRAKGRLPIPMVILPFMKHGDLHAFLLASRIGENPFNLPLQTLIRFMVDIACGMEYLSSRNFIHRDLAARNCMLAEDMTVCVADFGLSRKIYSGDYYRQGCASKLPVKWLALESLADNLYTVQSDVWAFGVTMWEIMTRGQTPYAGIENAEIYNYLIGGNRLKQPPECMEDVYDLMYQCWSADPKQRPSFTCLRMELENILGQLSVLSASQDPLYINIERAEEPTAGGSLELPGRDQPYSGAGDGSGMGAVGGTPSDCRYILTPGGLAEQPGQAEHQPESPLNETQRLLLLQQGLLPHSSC

[18] = target: Cyclin-dependent kinase 9 (Homo sapiens, UniProt P50750);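 note: value from the CDK9 entry of a kinome-spanning kinase panel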
[19] = target: Dual specificity protein kinase CLK4 (Homo sapiens, UniProt Q9HAZ1)
Dual specificity protein kinase CLK4, sequence (Q9HAZ1 whole entry): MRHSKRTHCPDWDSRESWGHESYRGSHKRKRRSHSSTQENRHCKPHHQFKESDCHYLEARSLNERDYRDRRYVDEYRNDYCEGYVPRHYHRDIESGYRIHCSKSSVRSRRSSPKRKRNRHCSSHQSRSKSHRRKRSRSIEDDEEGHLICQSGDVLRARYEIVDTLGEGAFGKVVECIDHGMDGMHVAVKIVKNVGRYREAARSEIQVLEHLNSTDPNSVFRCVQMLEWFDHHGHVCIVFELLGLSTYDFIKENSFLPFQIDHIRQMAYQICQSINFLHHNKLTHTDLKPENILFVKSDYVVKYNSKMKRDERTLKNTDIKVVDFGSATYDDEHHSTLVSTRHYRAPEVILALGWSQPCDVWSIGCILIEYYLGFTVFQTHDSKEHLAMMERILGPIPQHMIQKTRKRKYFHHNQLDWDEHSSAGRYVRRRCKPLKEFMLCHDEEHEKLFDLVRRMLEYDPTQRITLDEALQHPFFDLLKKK

[20] = target: Dual specificity mitogen-activated protein kinase kinase 2 (Homo sapiens, UniProt P36507); assay: Navigating the Kinome. Panel member name: MAP2K2
Dual specificity mitogen-activated protein kinase kinase 2, sequence (P36507 whole entry): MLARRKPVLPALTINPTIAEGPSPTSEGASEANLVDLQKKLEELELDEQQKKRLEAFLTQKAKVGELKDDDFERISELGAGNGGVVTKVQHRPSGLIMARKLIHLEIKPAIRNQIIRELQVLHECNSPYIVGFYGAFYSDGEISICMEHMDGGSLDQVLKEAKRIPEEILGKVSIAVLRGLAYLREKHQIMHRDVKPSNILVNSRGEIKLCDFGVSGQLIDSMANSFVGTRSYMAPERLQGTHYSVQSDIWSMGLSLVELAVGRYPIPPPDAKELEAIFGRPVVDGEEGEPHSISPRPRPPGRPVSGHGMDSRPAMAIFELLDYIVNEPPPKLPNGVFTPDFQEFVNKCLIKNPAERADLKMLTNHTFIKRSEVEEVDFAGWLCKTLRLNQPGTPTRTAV

Aurora kinase A = Aurora kinase A (Homo sapiens, UniProt O14965);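 note: value from the Navigating the Kinome kinase panel profiling, panel entry STK6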
[21] = target: Leucine-rich repeat serine/threonine-protein kinase 2 (Homo sapiens, UniProt Q5S007);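 note: value from a broad kinome-wide panel profiling study in which LRRK2 was one of the kinases tested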
[22] = target: Mitogen-activated protein kinase 14 (Homo sapiens, UniProt Q16539);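 note: part of a kinome-wide panel, MAPK14 entry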
[23] = target: Tyrosine-protein kinase Fyn (Homo sapiens, UniProt P06241)
[24] = target: Serine/threonine-protein kinase pim-1 (Homo sapiens, UniProt P11309)
[25] = target: Dual specificity mitogen-activated protein kinase kinase 1 (Homo sapiens, UniProt Q02750); assay: Navigating the Kinome. Panel member name: MAP2K1
[26] = target: Tyrosine-protein kinase Lck (Homo sapiens, UniProt P06239);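 note: lck was assayed as one member of a kinase panel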
Aurora kinase B = Aurora kinase B (Homo sapiens, UniProt Q96GD4)
Focal adhesion kinase 1 = Focal adhesion kinase 1 (Homo sapiens, UniProt Q05397);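 note: measured as one member of a kinome panel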
[27] = target: Macrophage-stimulating protein receptor (Homo sapiens, UniProt Q04912); assay: Navigating the Kinome. Panel member name: MST1R
[28] = target: Serine/threonine-protein kinase PAK 4 (Homo sapiens, UniProt O96013);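 note: value obtained within a kinome profiling panel in which PAK4 was one of the panel members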
[29] = target: Dual specificity tyrosine-phosphorylation-regulated kinase 1A (Homo sapiens, UniProt Q13627);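 note: measured against DYRK1A as one member of a broad kinome profiling panel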
[30] = target: Death-associated protein kinase 3 (Homo sapiens, UniProt O43293);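 note: measured as one member of a kinome-wide profiling panel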
[31] = target: Receptor-type tyrosine-protein kinase FLT3 (Homo sapiens, UniProt P36888);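 note: FLT3 was tested as one member of a kinome-wide kinase panel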
[32] = target: Dual specificity tyrosine-phosphorylation-regulated kinase 1B (Homo sapiens, UniProt Q9Y463); assay: Navigating the Kinome. Panel member name: DYRK1B
[33] = target: Calcium/calmodulin-dependent protein kinase type II subunit alpha (Homo sapiens, UniProt Q9UQM7); assay: Navigating the Kinome. Panel member name: CAMK2A
[34] = target: 5'-AMP-activated protein kinase catalytic subunit alpha-1 (Homo sapiens, UniProt Q13131)
[35] = target: Glycogen synthase kinase-3 beta (Homo sapiens, UniProt P49841);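 note: value comes from a broad kinome profiling panel, with GSK3B as the panel member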
[36] = target: Serine/threonine-protein kinase TAO1 (Homo sapiens, UniProt Q7L7X3)
[37] = target: High affinity nerve growth factor receptor (Homo sapiens, UniProt P04629);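 note: NTRK1 tested as one member of a kinome-wide profiling panel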
[38] = target: Serine/threonine-protein kinase Nek2 (Homo sapiens, UniProt P51955)
[39] = target: Cyclin-dependent kinase 7 (Homo sapiens, UniProt P50613);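 note: value comes from a kinome-wide kinase profiling panel in which CDK7 is one member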
[40] = target: Mitogen-activated protein kinase kinase kinase kinase 4 (Homo sapiens, UniProt O95819)
Mitogen-activated protein kinase kinase kinase kinase 4, sequence (O95819 whole entry): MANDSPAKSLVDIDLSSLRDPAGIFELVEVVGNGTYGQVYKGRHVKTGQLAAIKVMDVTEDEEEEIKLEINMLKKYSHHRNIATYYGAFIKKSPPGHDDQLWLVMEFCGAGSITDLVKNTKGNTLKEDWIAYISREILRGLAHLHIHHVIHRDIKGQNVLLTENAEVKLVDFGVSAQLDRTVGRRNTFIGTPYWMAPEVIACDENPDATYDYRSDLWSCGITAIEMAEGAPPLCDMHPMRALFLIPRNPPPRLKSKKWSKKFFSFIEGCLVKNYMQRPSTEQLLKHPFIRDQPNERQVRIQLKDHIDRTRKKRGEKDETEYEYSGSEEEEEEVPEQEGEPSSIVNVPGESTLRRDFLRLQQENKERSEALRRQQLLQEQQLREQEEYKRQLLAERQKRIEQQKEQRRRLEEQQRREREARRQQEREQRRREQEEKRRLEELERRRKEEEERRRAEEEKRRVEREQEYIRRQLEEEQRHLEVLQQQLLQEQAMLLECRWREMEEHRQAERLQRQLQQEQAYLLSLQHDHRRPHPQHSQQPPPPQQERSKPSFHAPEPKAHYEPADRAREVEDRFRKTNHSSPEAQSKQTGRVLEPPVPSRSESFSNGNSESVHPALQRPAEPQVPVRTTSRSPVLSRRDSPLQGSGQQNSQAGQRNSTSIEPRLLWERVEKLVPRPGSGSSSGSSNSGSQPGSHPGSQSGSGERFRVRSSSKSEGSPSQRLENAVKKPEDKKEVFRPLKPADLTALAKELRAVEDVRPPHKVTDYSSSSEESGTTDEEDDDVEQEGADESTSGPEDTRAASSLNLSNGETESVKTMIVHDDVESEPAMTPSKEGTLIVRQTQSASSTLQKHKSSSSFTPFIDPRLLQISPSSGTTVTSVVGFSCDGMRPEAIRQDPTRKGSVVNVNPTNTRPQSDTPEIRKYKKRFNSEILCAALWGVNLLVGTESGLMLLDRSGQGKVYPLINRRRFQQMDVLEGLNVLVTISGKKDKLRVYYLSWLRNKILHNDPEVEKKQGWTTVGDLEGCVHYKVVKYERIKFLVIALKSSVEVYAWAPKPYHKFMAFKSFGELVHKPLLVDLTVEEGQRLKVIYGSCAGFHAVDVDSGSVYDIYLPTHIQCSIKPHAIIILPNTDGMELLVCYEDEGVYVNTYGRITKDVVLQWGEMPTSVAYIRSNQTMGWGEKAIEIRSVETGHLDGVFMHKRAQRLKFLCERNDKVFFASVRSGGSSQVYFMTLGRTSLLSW

[41] = target: Dual specificity protein kinase CLK2 (Homo sapiens, UniProt P49760)
[42] = target: Inhibitor of nuclear factor kappa-B kinase subunit epsilon (Homo sapiens, UniProt Q14164); assay: Navigating the Kinome. Panel member name: IKBKE
Inhibitor of nuclear factor kappa-B kinase subunit epsilon, sequence (Q14164 whole entry): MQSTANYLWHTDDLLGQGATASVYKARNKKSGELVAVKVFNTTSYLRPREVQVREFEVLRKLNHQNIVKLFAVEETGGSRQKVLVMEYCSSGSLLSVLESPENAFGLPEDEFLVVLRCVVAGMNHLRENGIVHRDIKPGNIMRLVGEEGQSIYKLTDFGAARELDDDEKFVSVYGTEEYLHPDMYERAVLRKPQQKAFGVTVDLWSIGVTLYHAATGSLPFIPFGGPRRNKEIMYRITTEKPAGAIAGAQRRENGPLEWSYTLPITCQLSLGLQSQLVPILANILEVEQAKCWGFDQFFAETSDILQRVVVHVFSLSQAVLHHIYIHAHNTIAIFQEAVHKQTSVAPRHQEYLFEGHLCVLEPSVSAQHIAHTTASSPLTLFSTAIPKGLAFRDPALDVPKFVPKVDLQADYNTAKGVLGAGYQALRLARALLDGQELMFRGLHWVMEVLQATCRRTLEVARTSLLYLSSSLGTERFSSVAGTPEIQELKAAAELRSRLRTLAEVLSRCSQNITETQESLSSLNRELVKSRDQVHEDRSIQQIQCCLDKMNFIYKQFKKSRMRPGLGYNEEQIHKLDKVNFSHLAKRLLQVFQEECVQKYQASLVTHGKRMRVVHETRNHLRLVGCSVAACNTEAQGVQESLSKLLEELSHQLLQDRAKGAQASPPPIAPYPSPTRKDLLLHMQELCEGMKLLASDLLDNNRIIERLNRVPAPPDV

[43] = target: Mitogen-activated protein kinase 9 (Homo sapiens, UniProt P45984);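 note: value from a kinome panel profiling assay, MAPK9 panel entry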
[44] = target: Platelet-derived growth factor receptor alpha (Homo sapiens, UniProt P16234); assay: Navigating the Kinome. Panel member name: PDGFRA
Platelet-derived growth factor receptor alpha, sequence (P16234 whole entry): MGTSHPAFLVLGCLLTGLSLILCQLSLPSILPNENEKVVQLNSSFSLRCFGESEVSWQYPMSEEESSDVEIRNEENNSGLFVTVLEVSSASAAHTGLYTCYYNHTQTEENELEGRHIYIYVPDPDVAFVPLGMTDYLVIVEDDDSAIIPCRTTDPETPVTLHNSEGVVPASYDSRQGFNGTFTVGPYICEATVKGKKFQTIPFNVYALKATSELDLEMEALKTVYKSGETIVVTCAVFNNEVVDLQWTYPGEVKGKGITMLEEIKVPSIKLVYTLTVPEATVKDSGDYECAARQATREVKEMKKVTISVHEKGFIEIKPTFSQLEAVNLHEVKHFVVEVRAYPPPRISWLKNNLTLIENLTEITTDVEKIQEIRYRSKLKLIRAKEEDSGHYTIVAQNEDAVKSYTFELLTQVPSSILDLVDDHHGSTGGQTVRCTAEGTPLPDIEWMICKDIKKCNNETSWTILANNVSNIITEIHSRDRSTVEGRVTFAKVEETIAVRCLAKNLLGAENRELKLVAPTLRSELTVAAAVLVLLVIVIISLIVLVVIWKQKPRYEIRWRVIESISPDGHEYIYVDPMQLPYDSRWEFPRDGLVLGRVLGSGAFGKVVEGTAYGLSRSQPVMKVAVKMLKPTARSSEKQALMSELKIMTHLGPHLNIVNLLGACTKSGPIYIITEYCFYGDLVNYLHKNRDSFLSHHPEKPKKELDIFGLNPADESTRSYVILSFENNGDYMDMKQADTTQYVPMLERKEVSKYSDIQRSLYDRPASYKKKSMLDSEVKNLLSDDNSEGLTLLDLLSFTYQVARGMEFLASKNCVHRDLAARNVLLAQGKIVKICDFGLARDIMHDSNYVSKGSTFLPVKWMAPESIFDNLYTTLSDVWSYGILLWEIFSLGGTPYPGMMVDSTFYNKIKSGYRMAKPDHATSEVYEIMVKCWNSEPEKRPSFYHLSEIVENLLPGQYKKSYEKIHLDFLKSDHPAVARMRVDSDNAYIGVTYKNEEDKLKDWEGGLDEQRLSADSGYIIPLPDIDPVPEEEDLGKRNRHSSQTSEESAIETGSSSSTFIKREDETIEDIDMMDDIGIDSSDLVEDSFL

[45] = target: Hepatocyte growth factor receptor (Homo sapiens, UniProt P08581);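 note: kinase panel profiling across the kinome, with MET as the panel member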
[46] = target: Vascular endothelial growth factor receptor 1 (Homo sapiens, UniProt P17948);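 note: measured within a kinome-wide profiling panel, FLT1 as the panel member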
[47] = target: Serine/threonine-protein kinase TBK1 (Homo sapiens, UniProt Q9UHD2); assay: Navigating the Kinome. Panel member name: TBK1
LIM domain kinase 1 = LIM domain kinase 1 (Homo sapiens, UniProt P53667); assay: Navigating the Kinome. Panel member name: LIMK1
[48] = target: Cyclin-dependent kinase 5 (Homo sapiens, UniProt Q00535);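 note: CDK5 measured as one member of a kinase profiling panel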
Activated CDC42 kinase 1 = Activated CDC42 kinase 1 (Homo sapiens, UniProt Q07912); assay: Navigating the Kinome. Panel member name: ACK1

With COc1ccc(C(C#N)c2c(Cl)cnn(Cc3cccc4ccccc34)c2=O)cc1 (stereo not drawn) the IC50 [1] was 360 nM (active) and the IC50 [2] was 1130 nM (active).
With O=C(Nc1cnccn1)Nc1cccc2c(O)cccc12 the Ki [3] was > 5010 nM (inactive), the Ki [4] was 316 nM (active) and the Ki [5] was > 2000 nM (inactive). For the same compound, the Ki [6] was 1580 nM (active), the Ki [7] was > 3160 nM (inactive) and the Ki [8] was > 3980 nM (inactive). The Ki [9] was 1580 nM (active), the Ki [10] was > 3980 nM (inactive) and the Ki [11] was 2000 nM (active). The Ki [12] was 3980 nM (active), the Ki [13] was 794 nM (active) and the Ki [14] was > 1260 nM (inactive). The Ki [15] was > 6310 nM (inactive), the Ki [16] was > 3980 nM (inactive) and the Ki [17] was 2000 nM (active). For the same compound, the Ki [18] was 200 nM (active), the Ki [19] was 126 nM (active) and the Ki [20] was > 3980 nM (inactive). For the same compound, the Ki (Aurora kinase A) was > 1580 nM (inactive), the Ki [21] was 1580 nM (active) and the Ki [22] was > 3980 nM (inactive). For the same compound, the Ki [23] was > 6310 nM (inactive), the Ki [24] was 1000 nM (active) and the Ki [25] was > 3160 nM (inactive). The Ki [26] was > 6310 nM (inactive), the Ki (Aurora kinase B) was > 3980 nM (inactive) and the Ki (Focal adhesion kinase 1) was > 6310 nM (inactive). For the same compound, the Ki [27] was 1580 nM (active), the Ki [28] was > 5010 nM (inactive) and the Ki [29] was 1260 nM (active). For the same compound, the Ki [30] was 316 nM (active), the Ki [31] was > 3160 nM (inactive) and the Ki [32] was 631 nM (active). The Ki [33] was > 3980 nM (inactive), the Ki [34] was 2000 nM (active) and the Ki [35] was 1000 nM (active). For the same compound, the Ki [36] was > 6310 nM (inactive), the Ki [37] was 1580 nM (active) and the Ki [38] was > 3160 nM (inactive). The Ki [39] was 3980 nM (active), the Ki [40] was 5010 nM (active) and the Ki [41] was 2000 nM (active). For the same compound, the Ki [42] was > 3160 nM (inactive), the Ki [43] was > 3980 nM (inactive) and the Ki [44] was 2000 nM (active). For the same compound, the Ki [45] was 1000 nM (active), the Ki [46] was > 3980 nM (inactive) and the Ki [47] was > 3160 nM (inactive). The Ki (LIM domain kinase 1) was 126 nM (active), the Ki [48] was 6.31 nM (active) and the Ki (Activated CDC42 kinase 1) was > 3980 nM (inactive).
